Laboratory results reported in patent publication US5866787A, “Transgenic plants co-expressing a functional human 2-5A system” (Cleveland Clinic Foundation, priority 1995, dated 1999).

Key:
[1] = system: 2-5A-dependent RNase; conditions: cited from earlier work
[2] = system: 2-5A-dependent RNase; conditions: depending on the cell type; cited from earlier work
[3] = system: RNase L; assay: 2-5A injection into detached leaves, 18S rRNA northern blot; format: cell-based, transgenic tobacco; conditions: about 2.5 μM injected, about 3 hrs; not in control or synthetase-only plants
Protocol: FIG. 24. […] Leaves are injected with about 2.5 μM 2-5A, total RNA is extracted after 3 hr and probed with ^32 P-labeled 18S cDNA. Lanes 1-2, control plant, lanes 3 and 4, plant expressing only 2-5A synthetase (Syn); lane 5, plant expressing only RNase L (RL); lanes 6-7, plants expressing both 2-5A synthetase and RNase L (Syn+RL).
Functional expression of RNase L in transgenic tobacco plants is detected by 2-5A-induced breakdown of 18S ribosomal RNA (rRNA) in detached leaves that are injected with 2-5A. Transgenic leaves are injected with about 2.5 μM p3 A(2'p5'A)3 and are incubated for about 3 hrs before total RNA is prepared. […] In addition, plants expressing RNase L are believed to have specific 2-5A binding activity that is absent in control, non-transgenic plants.

[4] = system: RNase L; assay: 2-5A uptake by cut leaves, 18S rRNA northern blot; format: cell-based, transgenic plant expressing human RNase L; conditions: 1 μM taken up by cut leaves for seven hours; not in control plant
Protocol: FIG. 30 illustrates that RNase L in cut leaves is activated to cleave rRNA by incubation in a solution containing 2-5A. A northern blot probed with ^32 P-labeled cDNA to […] rRNA is shown. The cut leaves are from a control plant (lanes 1 and 2) or from a plant transgenic for human RNase L cDNA (lanes 3 and 4). The presence or absence of 2-5A and the position of the 2-5A-mediated rRNA cleavage products are shown.
Leaves from control and transgenic plants are cut and allowed to take up 2-5A [1 μM of p3 (A2'p)3 A] through the petiole for about seven hours at room temperature under fluorescent light. Total RNA is prepared and used to prepare northern blots. THe RNA in the blots is hybridized to a ^32 P labeled human 18S rRNA cDNA probe (the cDNA is provided by Dr. John Thaden, Baltimore).
To monitor uptake of 2-5A, leaves are cut at the base of the petiole and then placed in a solution of ^32 P-labeled 2-5A probe for about three hours at room temperature under light. The petiole was cut further and autoradiograms were made from the lamina. Uptake and translocation of the 2-5A probe is readily apparent through veins to all parts of lamina (data now shown). Catalytic activity of RNase L in the intact leaves is determined after allowing unlabeled 2-5A, p3 A(2'p5'A)3 (1 μM), to be taken up by cut leaves for seven hours. […]

[5] = system: recombinant human RNase L; assay: 2-5A dependent ribonuclease L assay, poly(U) cleavage; format: biochemical; conditions: about 30° C. for about 2 hr
Protocol: FIG. 25. Transgenic plants produce functional, human recombinant 2-5A synthetase. Extracts of plants containing cDNA to both human RNase L and 2-5A synthetase (lanes 8-11), of control plants that are transformed with vector alone (lanes 12-15), and of interferon treated human HeLa cells (lanes 16 and 17) are assayed for 2-5A synthetase activity. 2-5A synthetase activity in extracts of transgenic plants is determined by a functional assay for 2-5A. […] The total cell lysates are centrifuged at about 10,000×g for about 10 min at about 4° C., the supernatants are collected and the protein concentration is determined as described in Bradford, M. et al.: Anal. Biochem., 72:248 (1976). […] 2-5A is monitored by its ability to activate RNase L, which are expressed and isolated from insect cells, Dong, B. et al.: J. Biol. Chem., 269:14153 (1994), to cleave poly (U) to discrete products (arrows). […]
To determine if 2-5A synthetase is present in the transgenic tobacco plants, functional assays for the enzyme are performed. 2-5A synthetase activity in extracts of transgenic plants is determined by a functional assay for 2-5A. […] The total cell lysates are centrifuged at about 10,000×g for about 10 min at about 4° C., the supernatants are collected and the protein concentration is determined. […]

[6] = system: 32P-2-5A probe; assay: 2-5A probe crosslinking to lysine to asparagine mutants, phosphorimager analysis; format: binding; conditions: uv crosslinking, phosphorimager analysis of dried gel

Question: Which “stimulatory effect on 2-5A-dependent RNase activity” value [1] does the source give for Nc1ncnc2c1ncn2[C@@H]1O[C@H](COP(=O)(O)OP(=O)(O)OP(=O)(O)O)[C@@H](O)[C@H]1O [ATP] here?
Answer: two-fold

Question: For interferon, which “enhancement of levels of 2-5A-dependent RNase” value [2] is on record?
Answer: two- to twenty-fold

Question: Which results are given for p3 A(2'p5'A)3?
Answer: degradation of rRNA in plants expressing RNase L [3]: degradation of rRNA; degradation of 18S rRNA in RNase L expressing plants [4]: induce degradation of the 18S rRNA to discrete cleavage products

Question: For pA(2'p5'A)3, which “activation of RNase L to cleave poly(U)” value [5] is on record?
Answer: production of discrete poly (U) cleavage products

B1: ZB1(Lys^240,274 →Asn): clone ZB1 double mutant, lysines 240 and 274 mutated to asparagine (protein, UniProt Q05921 1-735, looked up, variant K240N K274N)
2-5A-dependent ribonuclease: METPDYNTPQGGTPSAGSQRTVVEDDSSLIKAVQKGDVVRVQQLLEKGADANACEDTWGWTPLHNAVQAGRVDIVNLLLSHGADPHRRKKNGATPFIIAGIQGDVKLLEILLSCGADVNECDENGFTAFMEAAERGNAEALRFLFAKGANVNLRRQTTKDKRRLKQGGATALMSAAEKGHLEVLRILLNDMKAEVDARDNMGRNALIRTLLNWDCENVEEITSILIQHGADVNVRGERGNTPLIAAVERKHTGLVQMLLSREGINIDARDNEGNTALLIAVDKQLKEIVQLLLEKGADKCDDLVWIARRNHDYHLVKLLLPYVANPDTDPPAGDWSPHSSRWGTALKSLHSMTRPMIGKLKIFIHDDYKIAGTSEGAVYLGIYDNREVAVKVFRENSPRGCKEVSCLRDCGDHSNLVAFYGREDDKGCLYVCVSLCEWTLEEFLRLPREEPVENGEDKFAHSILLSIFEGVQKLHLHGYSHQDLQPQNILIDSKKAVRLADFDQSIRWMGESQMVRRDLEDLGRLVLYVVMKGEIPFETLKTQNDEVLLTMSPDEETKDLIHCLFSPGENVKNCLVDLLGHPFFWTWENRYRTLRNVGNESDIKVRKCKSDLLRLLQHQTLEPPRSFDQWTSKIDKNVMDEMNHFYEKRKKNPYQDTVGDLLKFIRNIGEHINEEKKRGMKEILGDPSRYFQETFPDLVIYIYKKLKETEYRKHFPQPPPRLSVPEAVGPGGIQS
Question: Which “2-5A binding activity, % of clone ZB1” value [6] does the source give for B1 here?
Answer: 12.2%
